Twelve molecules from patent US20100035831A1, “ANTI-WRINKLE AGENT AND ADAM INHIBITOR” (SHISEIDO COMPANY, LTD., priority 2007, published 2010) can be followed below.

One assay concerns ADAM. The assay is described as follows: Inhibition of PMA-induced TNF-α release from U937 cells as index of ADAM inhibition (ELISA). Conditions: tested substance 30 μg/mL, 30 min pretreatment, 10 nM PMA for 6 hours. It counts as cell-based, human. As to the method: For ADAM inhibiting effect, the TNF-α which is cut out to be released from the membrane of the U937 cell derived from the human lymphoma through the action of the ADAM was used as an index and the inhibiting effect on the TNF-α release was assessed. A new ADAM inhibitor was explored by screening different compounds according to the present method.
The U937 cells derived from the human lymphoma were seeded to the 48-well plate adjusting the number of the cells to 1×10^5 cells/0.25 ml and cultured at 37° C. overnight. The medium which contained 30 μg/ml of alkyl glucoside was added and incubated at 37° C. for 30 min. to be pretreated. 10 nM PMA (phorbol ester:12-O-tetradecanoylphorbol-acetate; Sigma P8139) was then added and cultured at 37° C. for 6 hours. After completion of the treatment, the supernatant of the culture was collected, centrifuged and the cell-free supernatant was cryopreserved at −20° C. The assay of the released hTNF-α was performed using the hTNF-α Duo-Set ELISA kit from R & D Ltd. Each supernatant of the culture was diluted 5 folds with the medium, then 100 μl each was added to the 96-well plate and measured according to the protocol of R & D Ltd. The absorbance at 450-570 nm of each well was measured by the measurement kit and concentrations of the samples were obtained from the standard curve. The inhibition rates were calculated according to the following equation wherein A0 is the absorbance of 0% inhibiting control (the medium containing only PMA), A100 is the absorbance of 100% inhibiting control (only the medium) and AS is the absorbance of the sample.
The inhibition rate (%)=(A0−AS)/(A0−A100)×100

Assay [1] has as its system fine wrinkles around the human eyes. The assay is described as follows: Visual judgement of fine wrinkles under the human eye, half face double blind test. The note with it: 0.44% in 30% ethanol. It is filed as in vivo. As to the method:
(§1) An aqueous solution of 0.44% dodecyl β-D-glucoside/30% ethanol was successively applied to 16 adult male humans in the 30-40th's (the average age of 42.2) for two months. The dosage was set as 30 μl per application. The solution of 0.44% dodecyl β-D-glucoside/30% ethanol was applied to the lateral angle of and under one eye and 30% ethanol aqueous solution as the vehicle was applied to those of the other eye two times a day.
(§2) To examine the state of the skin around the eyes before the application and after the application, it was acclimated in a steady temperature and humidity room (23.5° C., 45% humidity) after washing the face and then photo taking of the appearance around the eyes (Nikon digital single lens reflex camera D-100) and the water content measurement of the horny layer (Corneometer, Courage+Khazaka electronic GmbH, Germany) were performed before starting the test and after starting the successive application for two months.
Then, the visual appreciation judgement was performed by three judging persons.

Assay [2] has as its system barrier-destructed wrinkle mouse model. The assay is described as follows: Relative transepidermal water loss (TEWL) in the barrier-destructed wrinkle mouse model. It counts as in vivo, hairless mice (HR-1). Conditions: for Relative TEWL (%), left (treated) side based on right (untreated) side: 1% in 50% ethanol, 4 weeks after starting, vehicle group 186% (FIG. 3). Here is the method:
(§3) The tape stripping was performed on the left back of the hairless mice (HR-1, 6 week old male, Hosino experimental animals) 3 times a week for 4 consecutive weeks so that the trans epithelial water loss (measured using a measuring device of water loss MEECO; Meeco Ltd, USA) was 4-8 mg/cm^2/h. Every time immediately after procedures of tape stripping, 100 μl each of the solutions of dodecyl β-D-glucoside, tetradecyl β-D-glucoside, and hexadecyl β-D-glucoside dissolved in the 50% ethanol aqueous solution so that they were 1% were applied on the left back of the mice, and as the negative control, a 50% ethanol aqueous solution (vehicle) were similarly applied. Number n was set as 6 to 7 for each group.
Further, the trans epithelial water loss (TEWL) at the backs of the mice before starting the test and at 4 weeks after starting was also examined. The TEWL values at the left backs on which dodecyl β-D-glucoside, tetradecyl β-D-glucoside, and hexadecyl β-D-glucoside or 50% ethanol aqueous solution (vehicle) were applied after tape stripping procedure as well as the values at the right backs on which nothing was applied were measured by the Vapometer (Technologies Ltd, Kuopio, Finland) two times, respectively. The ratio of the TEWL value for the left side based on the TEWL value of the right side for each individual (the relative TEWL (%)) was obtained and the average value for each group was calculated.
(§4) Using the similar method, the wrinkle-inhibiting effect of octadecyl β-D-glucoside (GC18) was also examined.

Assay [3] has the same test system. The assay is described as follows: Wrinkle score by visual judgement in the tape-stripping barrier-destructed wrinkle mouse model. It is filed as in vivo, hairless mice (HR-1). Here is the method: Then, the wrinkle-ameliorating effects of dodecyl β-D-glucoside (GC12), tetradecyl β-D-glucoside (GC14), and hexadecyl β-D-glucoside (GC16) amongst the new ADAM-inhibiting compounds were examined using a barrier-destructed wrinkle mouse model.
as §3
States of the wrinkle development after 4 weeks were scored by visual judgement. The assessment criteria of the wrinkle development state was set as “no wrinkle; 0”, “thin wrinkle; 1”, “clear wrinkle; 2”, “deep wrinkle; 3”, and the states were scored to the 0.5.
as §4

The nature of assay [4]: Water content of the horny (corneal) layer around the human eyes (Corneometer). It is filed as in vivo. The note with it: 0.44% in 30% ethanol, two months; vehicle group reduced to 95% of the value before start (FIG. 6). As to the method:
as §1, §2
The rate of the water content value of the corneal layer of the eye, when the value is 100, after successive application for two months based on the water content value of the horny layer of each subject before starting the test (relative water content of the horny layer (%)) was obtained to calculate the average value for each group.

Where [5] appears, read: 30 μl two times a day for two months, 16 adult males, versus vehicle-applied side.
Where [6] appears, read: 1% in 50% ethanol, 100 μl on left back after each tape stripping, 3 times a week, after 4 weeks, vehicle group 1.24 (FIG. 2).

SMILES strings stand for the structures.

In the case of `CCCCCCCCCCO[C@@H]1O[C@H](CO)[C@@H](O)[C@H](O)[C@H]1O` [Decyl β-D-glucoside], in the assay with ADAM, the “Inhibition rate (%) of TNF-α release” value was determined as 56%.

Consider `CCCCCCCCCCCCO[C@H]1O[C@H](CO)[C@@H](O)[C@H](O)[C@H]1O` [Dodecyl α-D-glucoside], for which the “Inhibition rate (%) of TNF-α release” value in the assay on ADAM came out at 91%.

For the molecule `CCCCCCCCCCCCO[C@@H]1O[C@H](CO)[C@@H](O)[C@H](O)[C@H]1O` [Dodecyl β-D-glucoside], in assay [1] (setting [5]), the “Number of subjects Ameliorated” value was found to be 10, the “Number of subjects Deteriorated” value was determined as 2 and the “Number of subjects Unchanged” value stood at 4. Besides, the “Effect on fine wrinkles under the eye (in words)” value in assay [1] (two months, human) was “significantly ameliorates the fine wrinkles under the eye”. Besides, the “Relative TEWL (%), left (treated) side based on right (untreated) side” value (“Relative TEWL (%), left” for short) in assay [2] turned out to be 141%. Besides, the “Inhibition rate (%) of TNF-α release” value in the assay with ADAM was found to be 88%. The “Average wrinkle score by visual judgement (0 no wrinkle to 3 deep wrinkle)” value in assay [3] (setting [6]) is reported as 0.58. For the same molecule, the “Relative water content of the horny layer (in words)” value in assay [4] is given as “reduction of the water content of the corneal layer was controlled”.

Turning to `OC[C@H]1O[C@@H](Oc2ccccc2)[C@H](O)[C@@H](O)[C@@H]1O` [Glucoside compound (A), reference compound], in the assay with ADAM, the “Inhibition rate (%) of TNF-α release” value was 9.5%.

Regarding `OC[C@H]1O[C@@H](OCc2ccccc2)[C@H](O)[C@@H](O)[C@@H]1O` [Glucoside compound (B), reference compound], the “Inhibition rate (%) of TNF-α release” value in the assay with ADAM is on record as 3.4%.

On to `OC[C@H]1O[C@@H](Oc2cccc3cccnc23)[C@H](O)[C@@H](O)[C@@H]1O` [Glucoside compound (C), reference compound], for which, in the assay with ADAM, the “Inhibition rate (%) of TNF-α release” value is 4.8%.

On to `OC[C@H]1O[C@@H](Oc2c[nH]c3ccccc23)[C@H](O)[C@@H](O)[C@@H]1O` [Glucoside compound (D), reference compound], for which the “Inhibition rate (%) of TNF-α release” value in the assay on ADAM was −0.5%.

For `OC[C@H]1O[C@@H](OCCc2ccccc2)[C@H](O)[C@@H](O)[C@@H]1O` [Glucoside compound (E), reference compound], the “Inhibition rate (%) of TNF-α release” value in the assay on ADAM is listed as −51.83%.

Take `CCCCCCCCCCCCCCCCO[C@@H]1O[C@H](CO)[C@@H](O)[C@H](O)[C@H]1O` [Hexadecyl β-D-glucoside]: the “Relative TEWL (%), left” value in assay [2] was 164%. In addition, the “Inhibition rate (%) of TNF-α release” value in the assay on ADAM came out at 76%. The “Average wrinkle score by visual judgement (0 no wrinkle to 3 deep wrinkle)” value in assay [3] (setting [6]) is listed as 0.89.

Consider `CCCCCCCCCCCCCCCCCCO[C@@H]1O[C@H](CO)[C@@H](O)[C@H](O)[C@H]1O` [Octadecyl β-D-glucoside], for which the “Relative TEWL (%)” value in assay [2] (similar method, vehicle group 208% (FIG. 5)) stood at 124%. The “Inhibition rate (%) of TNF-α release” value in the assay with ADAM was determined as 62%. The “Average wrinkle score by visual judgement (0 no wrinkle to 3 deep wrinkle)” value in assay [3] (similar method, vehicle group 1.55 (FIG. 4)) is listed as 0.54.

As for `CCCCCCCCCCCCCCO[C@@H]1O[C@H](CO)[C@@H](O)[C@H](O)[C@H]1O` [Tetradecyl β-D-glucoside], in assay [2], the “Relative TEWL (%), left” value is given as 130%. Besides, the “Inhibition rate (%) of TNF-α release” value with ADAM is listed as 109%. Further, in assay [3] (setting [6]), the “Average wrinkle score by visual judgement (0 no wrinkle to 3 deep wrinkle)” value amounted to 0.63.

As to `CCCCCCCCCCCO[C@@H]1O[C@H](CO)[C@@H](O)[C@H](O)[C@H]1O` [Undecyl β-D-glucoside], the “Inhibition rate (%) of TNF-α release” value with ADAM was found to be 98%.
